Residues, ends and D or L forms follow the SMILES beside them. *: point of attachment. Cbz = O=C(OCc1ccccc1)*
Assays:
[1] = target: T1, proteasome (post-glutamic hydrolase activity) of MNT1 cells (Homo sapiens, UniProt P28072); assay: Proteasome LLE (post-glutamic hydrolase) activity assay on lyzates of treated MNT1 cells; assay type: cell-based; details: for Proteasome activity at 72 hours, Post-glutamic hydrolase: MNT1 cells lyzed 72 hours after treatment, palmitic or linoleic acid 25 μM, Phaeodactylum 5 μg/ml, Mg132 120 nM where stated; for post-glutamic hydrolase peptidase activity of the proteasome, change in words: 72 hours after addition, MNT-1 melanocytes, FIG. 1B
T1 construct: introduce in duplicate a fixed volume of cell lyzate; endogenous in cells; host or cells: MNT1 human melanocyte line (lysate)
T1 sequence (P28072 1-239): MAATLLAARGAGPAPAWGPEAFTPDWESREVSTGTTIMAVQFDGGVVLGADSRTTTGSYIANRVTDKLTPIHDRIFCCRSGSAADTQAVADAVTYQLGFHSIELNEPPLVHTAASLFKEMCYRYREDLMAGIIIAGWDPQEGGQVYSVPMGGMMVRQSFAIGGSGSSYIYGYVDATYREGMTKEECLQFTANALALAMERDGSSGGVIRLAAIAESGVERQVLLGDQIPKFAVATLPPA
Method: 2.1 Treatment of MNT1 Cells (Human Melanocyte Cell Lines) in Order to Assay the Proteasome and Tyrosinase Activities
MNT1, 10^6 cells/dish 35 mm in diameter, in triplicate
Treatment on D1 • Linoleic acid 25 μM • Palmitic acid 25 μM • Phaeodactylum 5 μg/ml
+1% BSA+Vitamin E 50 μM+Vitamin C 1 mM • Linoleic acid 25 μM • Palmitic acid 25 μM • Phaeodactylum 5 μg/ml
Stirring with a magnetic bar at 37° C. for 1 hour • 2nd treatment on D4
+Cycloheximide 1 μg/ml (protein synthesis inhibitor)
+120 nM Mg132 for the assay of the tyrosinase activity. • Preparation of the lyzates after 4 hours
2 rinses with PBS (phosphate-buffered saline)
(§1) On a bed of ice; recovery in 150 μl of lysis buffer by scraping.
Freezing at ±20° C. • Protein assay via the Bradford method • Proteasome activity assay
(§2) The cells are rinsed twice with PBS and each peptidase activity of the proteasome is then determined by using a fluorogenic peptide substrate specific for each of the activities, in the presence and in the absence of a specific proteasome inhibitor, MG 132 (Leu-Leu-Leucinal). The peptide substrate products are the following: Leu-Leu-Val-Tyr-amc (LLVY-amc) for the chymotrypsin-like activity, Leu-Leu-Glu-na (LLE-na) for the post-glutamic hydrolase activity and Leu-Ser-Thr-Arg-amc (LSTR-amc) for the trypsin-like activity. The principle of the assay consists in monitoring over time the increase in fluorescence due to the release of the fluorophores aminomethylcoumarin or β-naphthylamine from the fluorogenic peptides.
b)—LLE Activity (Post-Glutamic Hydrolase)
The following cleavage reaction is studied: • Proteasome (LLE activity • (post-glutamic hydrolase) N-CBZ-LLE-NA→N-CBZ-LLE-+NA fluorescent
Reading on a spectrofluorimeter at an excitation wavelength of 333 nm and an emission wavelength of 410 nm.
The process is performed as follows: • In a 96-well plate, introduce in duplicate a fixed volume of cell lyzate (determined from the lowest protein concentration of the samples, which should correspond to 20 μg of protein) and make up to 100 μl with TRIS buffer. • Add 100 μl of LLE-NA substrate prediluted to 300 μM in the TRIS buffer (150 μM final). • Take the spectrofluorimeter readings at an excitation wavelength of 340 nm and an emission wavelength of 410 nm at a gain of 83 every 2 minutes, for 35 minutes.
The raw results are expressed in F.U./min.
The assay is performed on 200 μl of reaction volume containing a volume V of cell lyzate set as a function of the protein concentrations of the lyzates.
From the calibration range, the activity may be expressed in pmol of MCA released/minute/mg of protein:
(§3) For the assay of the proteasome activities, the cells were lyzed at 72 hours after the cell treatment, and the protein concentration was determined.

[2] = target: T2, proteasome (trypsin-like activity) of MNT1 cells (Homo sapiens, UniProt Q99436); assay: Proteasome LSTR (trypsin-like) activity assay on lyzates of treated MNT1 cells; assay type: cell-based; details: for Proteasome activity at 72 hours, Trypsin-like: MNT1 cells lyzed 72 hours after treatment, palmitic or linoleic acid 25 μM, Phaeodactylum 5 μg/ml, Mg132 120 nM where stated
T2 construct: introduce in duplicate a fixed volume of cell lyzate; endogenous in cells; host or cells: MNT1 human melanocyte line (lysate)
T2 sequence (Q99436 44-277): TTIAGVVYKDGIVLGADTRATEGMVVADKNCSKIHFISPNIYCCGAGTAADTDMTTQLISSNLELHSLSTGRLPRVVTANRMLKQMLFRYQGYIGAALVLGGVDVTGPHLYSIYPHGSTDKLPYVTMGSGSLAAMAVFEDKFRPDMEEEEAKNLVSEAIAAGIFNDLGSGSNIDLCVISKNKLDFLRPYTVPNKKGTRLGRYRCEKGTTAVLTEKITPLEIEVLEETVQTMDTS
Method: 2.1 Treatment of MNT1 Cells (Human Melanocyte Cell Lines) in Order to Assay the Proteasome and Tyrosinase Activities MNT1, 10^6 cells/dish 35 mm in diameter, in triplicate
Treatment on D1 • Linoleic acid 25 μM • Palmitic acid 25 μM • Phaeodactylum 5 μg/ml +1% BSA+Vitamin E 50 μM+Vitamin C 1 mM • Linoleic acid 25 μM • Palmitic acid 25 μM • Phaeodactylum 5 μg/ml Stirring with a magnetic bar at 37° C. for 1 hour • 2nd treatment on D4 +Cycloheximide 1 μg/ml (protein synthesis inhibitor)
+120 nM Mg132 for the assay of the tyrosinase activity. • Preparation of the lyzates after 4 hours 2 rinses with PBS (phosphate-buffered saline)
as §1
as §2, with “Freezing at […]. • Protein assay via the Bradford method • Proteasome activity assay The cells” for “The cells”, “fluorogenic peptides. […]” for “fluorogenic peptides.”
Proteasome (LSTR Activity (Trypsin-Like)) Nt Boc LSTR-MCA→Nt Boc LSTR+MCA fluorescent Reading on a spectrofluorimeter at an excitation wavelength of 350 nm and an emission wavelength of 440 nm. c.4—Assay of the LSTR Activity • In a 96-well plate, introduce in duplicate a fixed volume of cell lyzate (determined from the lowest protein concentration of the samples, which should correspond to 50 μg of protein) and make up to 100 μl with TRIS buffer. • Add 100 μl of LSTR-MCA substrate prediluted to 80 μM in the TRIS buffer (40 μM final). • In parallel, check that it is indeed the proteasome activity by testing the inhibitor Mg132. • Add to 50 μg of protein 10 μl of solution of Mg132 prediluted to 400 μM in the TRIS buffer (20 μM final) and make up to 100 μl with TRIS buffer. Next, add 100 μl of LSTR substrate prediluted to 80 μM in the TRIS buffer (40 μM final). • Take the spectrofluorimeter readings at an excitation wavelength of 355 nm and an emission wavelength of 460 nm at a gain of 30, every 2 minutes, for 30 minutes.
The raw results are expressed in F.U./min. […]
as §3

Row | Proteasome activity at 72 hours, Post-glutamic hydrolase [1] | Proteasome activity at 72 hours, Trypsin-like [2] | post-glutamic hydrolase peptidase activity of the proteasome, change in words [1] | trypsin-like peptidase activity of the proteasome, change in words ([2]; 72 hours after addition, MNT-1 melanocytes, FIG. 1C) | Compound
1 | 42 ± 5 nmol/min/mg | 627 ± 282 pmol/min/mg | – | – | CC(C)C[C@@H](C=O)NC(=O)[C@H](CC(C)C)NC(=O)[C@H](CC(C)C)NC(=O)OCc1ccccc1 [Control + Mg132, Z-Leu-Leu-Leu-CHO] (Cbz-Leu-Leu-Leu-aldehyde)
2 | 78 ± 3.6 nmol/min/mg | 2848 ± 424 pmol/min/mg | increase and do so significantly | increase and do so significantly | CCCCC/C=C\C/C=C\CCCCCCCC(=O)O [Linoleic acid]
3 | 54 ± 6 nmol/min/mg | 1998 ± 261 pmol/min/mg | reduced | – | CCCCCCCCCCCCCCCC(=O)O [Palmitic acid]
